From patent publication US20240316213A1, “ANTIBODY-PROTAMINE FUSIONS AS TARGETING COMPOUNDS OF A PROTAMINE-BASED NANOPARTICLE” (Universität Münster, priority 2021, published 2024)

How the values were obtained:
HBL-1 DLBCL-cells = assay: NSG-HBL1 xenograft model; type: in vivo; conditions: after treatment start, groups of 10 mice
Method: A. Tumor growth and treatment regimen of the NSG-HBL1 xenograft model. After transplantation, tumors were grown to 200 mm^3, before treatment was started twice a week intraperitoneally (i.p.). […] On every treatment day, twice a week, tumor volumes were assessed by caliper measurements. […] C. Survival curves of the treatment versus control groups.

HBL-1 cells = assay: Colony formation assay, HBL-1; type: cell-based
Method: Next, we planned functional assays for identifying the effectivity of the antibody-inhibitor-complexes. DLBCL tumor cells were seeded in methylcellulose to form anchorage-free colony growth as a substitute marker for tumorigenicity. Assays were treated with combinations of antibody-inhibitor complexes and compared with appropriate control groups.
This colony-assay is used for quantification of anchorage-independent clonal cell growth and is a standard in vitro surrogate for tumorigenicity in vivo.

[1] = Cell-free vesicle/nanoparticle formation on chamber slides, microscopy; type: physicochemical
From the text: Based upon these measurements, we hypothesized that the antibody-protamine/free SMCC-protamine/siRNA complexes form outside cells and independently of a cellular context. […]
In detail, the nanostructures resemble a spheroid shape of micrometre size, formed by the three components mAB-SMCC-protamine, unconjugated SMCC-protamine and the Alexa488-labeled siRNA (FIG. 37). The structures are verified by fluorescence microscopy and laser scan confocal microscopy. It became evident that the spheroid structures are completely filled with Alexa488 signals from the siRNA compound.

siRNA = assay: Bandshift (electro-mobility shift) assay, siRNA binding; conditions: preparation containing free SMCC-protamine
Method: We analysed the siRNA binding capacity of these different conjugations by our routine bandshift assays (FIG. 40A-F).
The principle of genetic fusion between cell-determining targeting moiety and the electrostatic siRNA binder protamine such as presented in Song et al. was evaluated by applying this strategy to in a variation to target e.g. leukemic blasts (FIG. 48). The well-known anti-CD33 receptor antibody gemtuzumab was expressed with (FIG. 51) and without a direct genetic fusion to protamine as a siRNA carrier.

[2] = Bandshift assay, SM-1/RF binding; conditions: free SMCC-protamine present; listed as Not SMCC-protamine depleted CD20-mAB-preparations
From the text: Subsequently, we performed the same experiments for the binding between SM-1/RF and two carrier systems, rituximab (CD20)-protamine and the reliable cetuximab (EGFR)-protamine.

[3] = Bandshift assay, ibrutinib-Cy3.5 binding; conditions: free protamine-SMCC present; listed as Not protamine-SMCC depleted αCD20-mAB-preparations

| Compound | day by which all/last mice had to be sacrificed (HBL-1 DLBCL-cells) [days] | colony formation (HBL-1 cells) | nanoparticle/vesicle formation, cell-free ([1]; listed as uncharged ibrutinib) | siRNA bound per mol of antibody carrier (siRNA) [mol] | siRNA bound per mol of antibody carrier (siRNA; listed as Anti-CD20 mAB conjugated to SMCC-protamine) | siRNA bound per mol of antibody carrier (siRNA; listed as rituximab-protamine) | SM-1/RF complexed per mol of carrier mAB [2] [mol] | Microscopic analysis [1] | ibrutinib-Cy3.5 complexed per mol of carrier mAB [3] [mol] |
| --- | --- | --- | --- | --- | --- | --- | --- | --- | --- |
| rituximab: anti-CD20 antibody | ≤ 16 | only a mild effect on colony growth | – | – | – | – | – | – | – |
| C=CC(=O)N1CCC[C@@H](n2nc(-c3ccc(Oc4ccccc4)cc3)c3c(N)ncnc32)C1 [ibrutinib, 1-[(3R)-3-[4-amino-3-(4-phenoxyphenyl)pyrazolo[3,4-d]pyrimidin-1-yl]piperidin-1-yl]prop-2-en-1-one] | 20 | much lesser degree | not with uncharged ibrutinib | – | – | – | – | – | – |
| CD20-mAB rituximab-protamine/P conjugates: anti-CD20 antibody rituximab conjugated via sulfo-SMCC to protamine, containing free SMCC-protamine | – | – | – | 8 | around 16 mol | about 8 mol | > 32 | No visible | > 32 |
